Results: PMC4690121, “Interaction of Citrinin with Human Serum Albumin” (Toxins, 2015)
Read-outs that look alike come from different tables or passages of the source.

How the values were obtained:
[1] = target: T1, human serum albumin (HSA) (Homo sapiens, UniProt P02768); conditions: cited from earlier work
[2] = target: T1, human serum albumin (HSA)
Method: Before ultrafiltration samples contained 1 μM CIT with or without HSA (1, 2.5 or 5 μM), while displacement of CIT by WAR (5 and 10 μM) or OTA (2.5 and 5 μM) was investigated in the presence of 1 μM CIT and 5 μM HSA. During ultrafiltration experiments Amicon Ultra-4 centrifugal filter units (with 10 kDa molecular weight cut-off value; from Merck Millipore, Darmstadt, Germany) were applied. In order to remove glycerol from the filters, filter units were washed with 3 mL water and 3 mL PBS. Thereafter, 2.5 mL of the samples were transferred into the filter and Amicon tubes were centrifuged at 7500 g for 10 min at 25 °C (in Hettich Universal 32R centrifuge with fixed-angle rotor). Then 2 mL quantity of filtrate was transferred into 5-mL Eppendorf tube, after which 10 μL 6 M HCl solution was added to the sample in order to adjust the pH (to approximately 2). […] Final CIT concentrations were determined (applying calibration curve at concentration range 0.1–2.0 μM) by Hitachi F-4500 fluorescence spectrophotometer with the measurement of the fluorescence signal of CIT itself, using 330 nm and 500 nm as excitation and emission wavelengths, respectively.

[3] = target: T2, porcine serum albumin (PSA) (Sus scrofa, UniProt P08835); assay: Fluorescence quenching of albumin by CIT, binding constant; conditions: PBS pH 7.4, 25 °C; read-out: logK (±SD) of CIT-PSA complex (converted)
T2 construct: purchased Sigma-Aldrich
T2 sequence (P08835 25-607): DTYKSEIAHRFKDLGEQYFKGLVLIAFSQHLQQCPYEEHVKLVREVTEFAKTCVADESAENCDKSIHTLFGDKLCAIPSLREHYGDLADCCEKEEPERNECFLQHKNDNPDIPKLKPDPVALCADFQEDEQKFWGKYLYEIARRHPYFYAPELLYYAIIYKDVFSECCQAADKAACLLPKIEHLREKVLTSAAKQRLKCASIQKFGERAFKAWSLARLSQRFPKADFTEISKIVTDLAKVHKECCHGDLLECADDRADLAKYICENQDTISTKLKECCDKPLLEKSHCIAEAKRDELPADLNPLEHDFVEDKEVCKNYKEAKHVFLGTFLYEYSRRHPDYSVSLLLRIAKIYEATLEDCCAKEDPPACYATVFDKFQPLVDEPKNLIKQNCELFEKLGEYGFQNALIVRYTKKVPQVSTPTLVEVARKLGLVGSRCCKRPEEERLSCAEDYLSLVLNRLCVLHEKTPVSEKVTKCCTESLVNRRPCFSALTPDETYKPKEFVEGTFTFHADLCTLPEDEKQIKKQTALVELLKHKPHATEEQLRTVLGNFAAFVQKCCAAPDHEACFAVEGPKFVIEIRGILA
Method: (§1) A Fluorolog τ3 spectrofluorometric system (Jobin-Yvon/SPEX) and Hitachi F-4500 fluorescence spectrophotometer were used for steady-state fluorescence and fluorescence polarization measurements. All analyses were performed at +25 °C except thermodynamic studies.
(§2) Binding constants (K) were determined using fluorescence quenching method, where increasing CIT concentrations (0–5 μM) were added to standard amount of albumin (2 μM). Fluorescence emission spectra were recorded in PBS buffer (pH 7.4; λexc = 280 nm). Similarly to our previous studies, K values of CIT-albumin complexes were quantified by non-linear fitting with Hyperquad2006 program package (Protonic Software) assuming 1:1 stoichiometry: (1) I=I0+IAC−I0/2[A]0([A]0+[C]0+1/K−([A]0+[C]0+1/K)^2−4[A]0[C]0) where I denotes the fluorescence emission intensity of albumin in presence of CIT; I0 denotes the fluorescence emission intensity of albumin in absence of CIT; IAC denotes the fluorescence emission intensity of pure albumin-CIT complex (which is calculated by the Hyperquad2006 software); K denotes the binding constant; while [A]0 and [C]0 denote the total concentrations of albumin and CIT, respectively.

[4] = target: T3, rat serum albumin (RSA) (Rattus norvegicus, UniProt P02770); assay: as above; conditions: PBS pH 7.4, 25 °C; read-out: logK (±SD) of CIT-RSA complex (converted)
T3 construct: purchased Sigma-Aldrich
T3 sequence (P02770 25-608): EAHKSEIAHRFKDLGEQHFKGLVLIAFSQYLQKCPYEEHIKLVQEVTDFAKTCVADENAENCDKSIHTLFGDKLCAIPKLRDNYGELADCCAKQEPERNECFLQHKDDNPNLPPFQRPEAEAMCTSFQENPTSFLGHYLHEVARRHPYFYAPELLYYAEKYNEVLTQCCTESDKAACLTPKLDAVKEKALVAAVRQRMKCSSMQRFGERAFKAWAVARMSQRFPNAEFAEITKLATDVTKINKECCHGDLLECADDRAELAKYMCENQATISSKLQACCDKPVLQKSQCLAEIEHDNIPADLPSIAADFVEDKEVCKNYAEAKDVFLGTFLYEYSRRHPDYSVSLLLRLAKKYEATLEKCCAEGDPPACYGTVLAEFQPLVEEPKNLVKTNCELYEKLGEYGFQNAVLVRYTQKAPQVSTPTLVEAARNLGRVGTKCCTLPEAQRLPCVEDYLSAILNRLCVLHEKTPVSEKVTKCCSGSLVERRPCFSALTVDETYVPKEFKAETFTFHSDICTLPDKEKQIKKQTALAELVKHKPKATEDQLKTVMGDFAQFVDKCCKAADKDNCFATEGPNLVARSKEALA
Method: as §1, §2

[5] = target: T4, bovine serum albumin (BSA) (Bos taurus, UniProt P02769); assay: as above; conditions: PBS pH 7.4, 25 °C; read-out: logK (±SD) of CIT-BSA complex (converted)
T4 construct: purchased Sigma-Aldrich
T4 sequence (P02769 25-607): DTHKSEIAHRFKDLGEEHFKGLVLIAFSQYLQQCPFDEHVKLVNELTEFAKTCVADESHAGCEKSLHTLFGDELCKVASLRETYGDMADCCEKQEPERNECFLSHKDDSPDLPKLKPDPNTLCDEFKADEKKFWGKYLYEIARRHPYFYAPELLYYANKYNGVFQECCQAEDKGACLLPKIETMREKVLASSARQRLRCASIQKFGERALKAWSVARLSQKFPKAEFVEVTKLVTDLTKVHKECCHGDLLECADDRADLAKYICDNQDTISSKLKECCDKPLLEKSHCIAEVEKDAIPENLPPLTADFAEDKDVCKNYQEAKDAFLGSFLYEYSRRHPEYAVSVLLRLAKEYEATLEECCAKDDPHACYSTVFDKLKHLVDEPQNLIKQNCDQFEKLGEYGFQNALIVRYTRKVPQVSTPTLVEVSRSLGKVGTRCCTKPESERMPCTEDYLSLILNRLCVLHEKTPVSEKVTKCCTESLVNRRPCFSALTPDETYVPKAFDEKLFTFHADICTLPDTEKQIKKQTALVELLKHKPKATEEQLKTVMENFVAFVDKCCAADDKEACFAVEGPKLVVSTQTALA
Method: as §1, §2

[6] = target: T1, human serum albumin (HSA); assay: Fluorescence polarization displacement of OTA from HSA; type: binding; design: purchased Sigma-Aldrich; conditions: OTA 1 μM, HSA 1.4 μM, competitor 1–30 μM
[7] = target: T1, human serum albumin (HSA); assay: Fluorescence quenching of albumin by CIT, binding constant and van't Hoff thermodynamics; design: purchased Sigma-Aldrich
Method: as §1
as §2, with “Fluorescence emission spectra were recorded in PBS buffer (pH 7.4; λexc = 280 nm).” left out
To get deeper insight into the formation of CIT-HSA complex, quenching experiments were also performed at different temperatures (25, 30, 35, and 40 °C). Thermodynamic parameters were quantified applying the van’t Hoff equation: (2) lnK=−ΔG/RT=−ΔH/RT+ΔS/R where ΔG is the Gibbs free energy change, ΔS is the entropy change, while ΔH is the enthalpy change associated with the complex formation.

[8] = tested on: MDCK cells; assay: MDCK cell viability (calcein acetoxymethyl ester); type: cell-based; conditions: 24 h
Method: MDCK (immortalized, epithelial-kidney, ATCC: CCL 34) cells were cultured in DMEM containing FBS (10%), penicillin (100 U/mL) and streptomycin (100 μg/mL), in 25 cm^2 sterile plastic flasks (VWR) and in 24-well sterile plastic plates (VWR). In order to test the effect of CIT on cell viability in absence and presence of albumin, cell media with and without 10% FBS or 40 g/L HSA were also prepared. After 24-h treatment of MDCK cells (in 24-well plates) with CIT (0–100 μM) in absence and presence of FBS (10%) or HSA (40 g/L), cells were washed three times with 500 μL PBS. Then PBS was replaced with 500 µL Hanks + glucose buffer containing 1.6 µM calcein acetoxymethyl ester and cells were incubated for 40 min at 37 °C in the dark. Thereafter, wells were washed again with 500 μL ice-cold PBS and the emptied wells were filled with 500 μL of 5% perchloric acid (PCA) after which cells were incubated for 15 min at room temperature. 20 μL PCA extract was added to 180 μL of 1 M NaOH using black 96-well optical plates (VWR) for fluorescence measurement of the formed calcein (λexc = 490 nm, λem = 520 nm). Fluorescence intensities were measured with a microplate reader (Perkin Elmer EnSpire Multimode reader).

[9] = target: T1, human serum albumin (HSA); assay: Steady-state fluorescence displacement of warfarin from HSA by CIT; type: binding; design: purchased Sigma-Aldrich; conditions: warfarin 1 μM, HSA 3.5 μM, CIT 0.25–5.0 μM
[10] = van't Hoff, 25-40 °C quenching data

T1 sequence (P02768 25-609): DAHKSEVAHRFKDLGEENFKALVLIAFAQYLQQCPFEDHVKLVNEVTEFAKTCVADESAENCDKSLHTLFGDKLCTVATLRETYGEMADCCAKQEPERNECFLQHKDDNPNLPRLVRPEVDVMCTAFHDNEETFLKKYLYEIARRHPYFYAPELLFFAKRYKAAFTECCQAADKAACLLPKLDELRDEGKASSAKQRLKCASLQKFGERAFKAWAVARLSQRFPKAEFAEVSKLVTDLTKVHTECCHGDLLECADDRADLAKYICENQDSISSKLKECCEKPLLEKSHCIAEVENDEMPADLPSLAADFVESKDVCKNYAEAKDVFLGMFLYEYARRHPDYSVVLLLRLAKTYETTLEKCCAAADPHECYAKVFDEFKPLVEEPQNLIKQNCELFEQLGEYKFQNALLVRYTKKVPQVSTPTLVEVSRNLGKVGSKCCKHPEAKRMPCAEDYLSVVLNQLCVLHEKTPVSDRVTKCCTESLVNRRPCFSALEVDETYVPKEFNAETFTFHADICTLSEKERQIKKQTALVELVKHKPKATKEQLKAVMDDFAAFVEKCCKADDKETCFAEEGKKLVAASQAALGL

C[C@@H]1Cc2c(Cl)cc(C(=O)N[C@@H](Cc3ccccc3)C(=O)O)c(O)c2C(=O)O1 [OTA, ochratoxin A]
logK of OTA-HSA complex ([1]; 25 °C): 7.4–7.6 | complex stability with HSA compared to BSA ([1]; HSA vs BSA): 15 fold | complex stability with HSA compared to RSA ([1]; HSA vs RSA): 30 fold | displacement of CIT from HSA ([2]; 1 μM CIT + 5 μM HSA, 5 μM OTA): almost complete displacement | change of CIT concentration in the filtrate caused by the competitor ([2]; 1 μM CIT + 5 μM HSA, warfarin or ibuprofen 5 or 10 μM, OTA 2.5 and 5 μM): significant elevation

CC1=C2C(=CO[C@H](C)[C@H]2C)C(O)=C(C(=O)O)C1=O [CIT, Citrinin]
Kd [3]: 11 µM | Kd [4]: 3.16 µM | Kd [5]: 8.91 µM | fluorescence polarization of OTA (displacement of OTA) [6]: decrease of fluorescence polarization of OTA in a concentration dependent fashion | CIT in the filtrate in presence of HSA ([2]; 1 μM CIT, HSA 1, 2.5 and 5 μM, 10 kDa cut-off): significant decrease | Kd ([7]; PBS pH 6.0, 25 °C, read-out: logK of CIT-HSA complex (converted)): 5.62 µM | Kd ([7]; PBS pH 7.0, 25 °C, read-out: logK of CIT-HSA complex (converted)): 5.25 µM | Kd ([7]; PBS pH 7.4, 25 °C, read-out: logK (±SD) of CIT-HSA complex (converted)): 4.79 µM | Kd ([7]; PBS pH 7.4, 30 °C, read-out: logK (±SD) of CIT-HSA complex (converted)): 5.5 µM | Kd ([7]; PBS pH 7.4, 35 °C, read-out: logK (±SD) of CIT-HSA complex (converted)): 6.46 µM | Kd ([7]; PBS pH 7.4, 40 °C, read-out: logK (±SD) of CIT-HSA complex (converted)): 7.76 µM | Kd ([7]; PBS pH 7.8, 25 °C, read-out: logK of CIT-HSA complex (converted)): 7.59 µM | ∆H of CIT-HSA complex formation [7, 10]: -5.772 kcal/mol | ∆S of CIT-HSA complex formation [7, 10]: +20.90 J·mol^−1·K^−1 | CIT-induced viability loss in presence of FBS ([8]; 100 μM CIT + 10% FBS): considerably alleviated | CIT-induced viability loss in presence of HSA ([8]; 100 μM CIT + 40 g/L HSA): considerably alleviated | decrease of cell viability ([8]; 100 μM CIT, absence of FBS): approximately 50% | fluorescence intensity of HSA-bound warfarin (displacement of warfarin) [9]: significant decrease
